In one experiment the test system is Pyrenophora teres. The experiment is described as follows: In vivo test on Pyrenophora teres (barley net blotch). Particulars: 288 h, dose of 330 ppm, barley plants sprayed 24 hours before contamination, grading 12 days after contamination vs control plants, read-out: good (at least 50%) or total protection. How it is done:
In Vivo Test on Pyrenophora teres (Barley Net Blotch)
(§1) The active ingredient tested is prepared by potter homogenisation in a concentrated suspension type formulation at 100 g/l. This suspension is then diluted with water to obtain the desired active material concentration.
Barley plants (Express variety) in starter cups, sown on a 50/50 peat soil-pozzolana substrate and grown at 12° C., are treated at the 1-leaf stage (10 cm tall) by spraying with the aqueous suspension described above. Plants, used as controls, are treated with an aqueous solution not containing the active material.
After 24 hours, the plants are contaminated by spraying them with an aqueous suspension of Pyrenophora teres spores (12,000 spores per ml). The spores are collected from a 12-day-old culture. The contaminated barley plants are incubated for 24 hours at about 20° C. and at 100% relative humidity, and then for 12 days at 80% relative humidity.

A further experiment concerns Alternaria brassicae. The experiment is described as follows: In vivo test on Alternaria brassicae (leaf spot of crucifers) on radish plants. The conditions noted are these: for pest or weed control at 330 ppm: Alternaria brassicae, dose of 330 ppm, radish plants sprayed 24 hours before contamination, grading 6 to 7 days after contamination vs control plants, read-out: good (at least 50%) or total protection; for effectiveness on Alternaria brassicae: comparison compounds of WO 01/11965, 330 ppm. How it is done: In Vivo Test on Alternaria brassicae (Leaf Spot of Crucifers)
as §1
Radish plants (Pernot variety) in starter cups, sown on a 50/50 peat soil-pozzolana substrate and grown at 18-20° C., are treated at the cotyledon stage by spraying with the aqueous suspension described above.
Plants, used as controls, are treated with an aqueous solution not containing the active material.
After 24 hours, the plants are contaminated by spraying them with an aqueous suspension of Alternaria brassicae spores (40,000 spores per cm^3). The spores are collected from a 12 to 13 days-old culture.
The contaminated radish plants are incubated for 6-7 days at about 18° C., under a humid atmosphere.
Grading is carried out 6 to 7 days after the contamination, in comparison with the control plants.

In the next experiment the test system is Botrytis cinerea. The experiment in a line: In vivo test on Botrytis cinerea (cucumber grey mould). The conditions noted are these: for pest or weed control at 330 ppm: Botrytis cinerea, dose of 330 ppm, cucumber plants sprayed 24 hours before contamination, grading 5/7 days after contamination vs control plants, read-out: good (at least 50%) or total protection; for effectiveness on Botrytis cinerea: comparison compounds of WO 01/11965, 330 ppm. The protocol: In Vivo Test on Botrytis cinerea (Cucumber Grey Mould)
as §1
Cucumber plants (Marketer variety) in starter cups, sown on a 50/50 peat soil-pozzolana substrate and grown at 18-20° C., are treated at the cotyledon Z11 stage by spraying with the aqueous suspension described above. Plants, used as controls, are treated with an aqueous solution not containing the active material.
After 24 hours, the plants are contaminated by depositing drops of an aqueous suspension of Botrytis cinerea spores (150,000 spores per ml) on upper surface of the leaves. The spores are collected from a 15-day-old culture and are suspended in a nutrient solution composed of:
The contaminated cucumber plants are settled for 5/7 days in a climatic room at 15-11° C. (day/night) and at 80% relative humidity.
Grading is carried out 5/7 days after the contamination, in comparison with the control plants. Under these conditions, good (at least 50%) or total protection is observed at a dose of 330 ppm with the following compounds: 1, 2, 3, 4, 5, 6, 9, 10, 13, 18, 21, 22, 23, 25, 26, 27, 28, 29, 32, 34, 35, 38, 40, 43, 44, 45, 46, 47, 50, 51, 52, 53, 57 and 62.

On to `O=C(NCCc1nc(F)c(Cl)cc1F)c1ccccc1I` [Compound 63], for which the pest or weed control at 330 ppm in the experiment on Pyrenophora teres and in the experiment with Alternaria brassicae was at least 50% each time.

On to `O=C(NCCc1nc(F)c(F)cc1F)c1ccccc1Br` [Compound 47], for which the pest or weed control at 330 ppm in the experiment with Pyrenophora teres, with Alternaria brassicae and in the experiment on Botrytis cinerea was at least 50% each time.

As for `O=C(NCCc1ncc(Cl)cc1F)c1ccccc1C(F)F` [Compound 29], in the experiment with Botrytis cinerea, the pest or weed control at 330 ppm is at least 50%.

For `O=C(NCCc1ncc(Cl)cc1Br)c1ccccc1I` [Compound 40], the pest or weed control at 330 ppm in the experiment with Pyrenophora teres, with Alternaria brassicae and in the experiment with Botrytis cinerea was at least 50% each time.

For the compound `O=C(NCCc1ccc(Cl)cn1)c1ccccc1Br` [Compound 39], the pest or weed control at 330 ppm with Pyrenophora teres was at least 50%.

As for `O=C(NCCc1nc(F)c(Cl)cc1Cl)c1ccccc1I` [Compound 34], the pest or weed control at 330 ppm in the experiment on Pyrenophora teres, with Alternaria brassicae and with Botrytis cinerea was at least 50% throughout.

`Cc1c(F)c(F)nc(CCNC(=O)c2ccccc2C(F)(F)F)c1F` [Compound 42]: the pest or weed control at 330 ppm in the experiment on Pyrenophora teres is at least 50%.

As to `O=C(NCCc1nc(Cl)ccc1Cl)c1ccccc1C(F)(F)F` [Compound 35], the pest or weed control at 330 ppm in the experiment on Pyrenophora teres, in the experiment with Alternaria brassicae and in the experiment on Botrytis cinerea was at least 50% throughout.

Regarding `CC(CNC(=O)c1ccccc1I)c1ncc(Cl)cc1Cl` (stereo not shown) [Compound 61], the pest or weed control at 330 ppm in the experiment on Pyrenophora teres and in the experiment with Alternaria brassicae was at least 50% throughout.

Turning to `O=C(NCCc1nc(F)c(F)cc1F)c1ccccc1Cl` [Compound 48], in the experiment on Pyrenophora teres, the pest or weed control at 330 ppm was at least 50%.

For `O=C(NCCc1ncc(Cl)cc1Cl)c1ccccc1Cl` [Compound 2], the pest or weed control at 330 ppm in the experiment with Pyrenophora teres, with Alternaria brassicae and in the experiment on Botrytis cinerea was at least 50% in each case.

For the compound `CNC(=O)C(Cc1ncc(C(F)(F)F)cc1Cl)NC(=O)c1ccccc1` (stereo not shown) [compound 314, N-{1-methylcarbamoyl-2-[3-chloro-5-(trifluoromethyl)-2-pyridinyl]ethyl}-benzamide, reference compound], the “effectiveness on Botrytis cinerea” value in the experiment with Botrytis cinerea was “zero effectiveness”.

For the compound `CCNC(=O)C(Cc1ncc(C(F)(F)F)cc1Cl)NC(=O)c1cccc([N+](=O)[O-])c1` (stereo not shown) [compound 307, N-{1-ethylcarbamoyl-2-[3-chloro-5-(trifluoromethyl)-2-pyridinyl]ethyl}-3-nitrobenzamide, reference compound], the “effectiveness on Alternaria brassicae” value with Alternaria brassicae is “poor effectiveness”. Besides, the “effectiveness on Botrytis cinerea” value in the experiment on Botrytis cinerea is recorded as “zero effectiveness”.

Turning to `Cc1ccc(Cl)c(CCNC(=O)c2ccccc2C(F)(F)F)n1` [Compound 56], the pest or weed control at 330 ppm with Pyrenophora teres and in the experiment with Alternaria brassicae was at least 50% each time.

As to `CCNC(=O)C(Cc1ncc(C(F)(F)F)cc1Cl)NC(=O)c1ccccc1Br` (stereo not shown) [compound 310, N-{1-ethylcarbamoyl-2-[3-chloro-5-(trifluoromethyl)-2-pyridinyl]ethyl}-2-bromobenzamide, reference compound], the “effectiveness on Botrytis cinerea” value in the experiment with Botrytis cinerea is given as “zero effectiveness”.

`O=C(NCCc1nc(F)c(Cl)cc1Cl)c1ccccc1C(F)(F)F` [Compound 57]: the pest or weed control at 330 ppm with Pyrenophora teres, in the experiment with Alternaria brassicae and in the experiment with Botrytis cinerea was at least 50% in each case.

On to `O=C(NCCc1nc(Cl)ccc1Cl)c1ccccc1Br` [Compound 37], for which the pest or weed control at 330 ppm with Pyrenophora teres and in the experiment with Alternaria brassicae was at least 50% each time.

`O=C(NCCc1nc(F)c(Cl)cc1F)c1ccccc1C(F)(F)F` [Compound 62]: the pest or weed control at 330 ppm in the experiment on Pyrenophora teres, in the experiment with Alternaria brassicae and with Botrytis cinerea was at least 50% each time.

Regarding `CC(CNC(=O)c1cc(F)ccc1Cl)c1ccc(Cl)cn1` (stereo not shown) [Compound 7], the pest or weed control at 330 ppm in the experiment on Alternaria brassicae was at least 50%.

`CC(CNC(=O)c1ccccc1C(F)(F)F)c1ncc(Cl)cc1Cl` (stereo not shown) [Compound 60]: the pest or weed control at 330 ppm in the experiment with Pyrenophora teres and in the experiment on Alternaria brassicae was at least 50% in each case.

With `CCNC(=O)C(Cc1ncc(C(F)(F)F)cc1Cl)NC(=O)c1ccccc1` (stereo not shown) [compound 304, N-{1-ethylcarbamoyl-2-[3-chloro-5-(trifluoromethyl)-2-pyridinyl]-ethyl}-benzamide, reference compound], in the experiment on Botrytis cinerea, the “effectiveness on Botrytis cinerea” value is listed as “zero effectiveness”.

Regarding `O=C(NCCc1ccc(Cl)cn1)c1ccccc1I` [Compound 24], the pest or weed control at 330 ppm in the experiment on Alternaria brassicae was at least 50%.

Turning to `CNC(=O)C(Cc1ncc(C(F)(F)F)cc1Cl)NC(=O)c1ccc(-c2ccccc2)cc1` (stereo not shown) [compound 316, N-{1-methylcarbamoyl-2-[3-chloro-5-(trifluoromethyl)-2-pyridinyl]-ethyl}-4-phenylbenzamide, reference compound], in the experiment with Alternaria brassicae, the “effectiveness on Alternaria brassicae” value was “poor effectiveness”. Also, the “effectiveness on Botrytis cinerea” value in the experiment on Botrytis cinerea is reported as “zero effectiveness”.

Consider `O=C(NCCc1ccc(Cl)cn1)c1ccccc1C(F)(F)F` [Compound 20], for which the pest or weed control at 330 ppm in the experiment with Alternaria brassicae was at least 50%.

As to `O=C(NCCc1nc(Cl)c(Cl)cc1Cl)c1ccccc1I` [Compound 22], the pest or weed control at 330 ppm in the experiment with Botrytis cinerea is at least 50%.

In the case of `O=C(NCCc1nc(F)c(Cl)cc1Cl)c1ccccc1Cl` [Compound 59], the pest or weed control at 330 ppm in the experiment on Pyrenophora teres and with Alternaria brassicae was at least 50% throughout.

As to `CC(CNC(=O)c1ccccc1I)c1ccc(Cl)cn1` (stereo not shown) [Compound 65], in the experiment with Pyrenophora teres, the pest or weed control at 330 ppm was at least 50%.

As to `CNC(=O)C(Cc1ncc(C(F)(F)F)cc1Cl)NC(=O)c1ccc(OC)cc1` (stereo not shown) [compound 315, N-{1-methylcarbamoyl-2-[3-chloro-5-(trifluoromethyl)-2-pyridinyl]ethyl}-4-methoxybenzamide, reference compound], the “effectiveness on Botrytis cinerea” value in the experiment on Botrytis cinerea is on record as “zero effectiveness”.

Take `O=C(NCCc1ncc(Br)cc1Cl)c1ccccc1Br` [Compound 52]: the pest or weed control at 330 ppm with Pyrenophora teres, in the experiment on Alternaria brassicae and with Botrytis cinerea was at least 50% in each case.

As to `O=C(NCCc1nc(Cl)ccc1Cl)c1ccccc1C(F)F` [Compound 41], the pest or weed control at 330 ppm in the experiment with Pyrenophora teres and in the experiment on Alternaria brassicae was at least 50% throughout.

For `CCNC(=O)C(Cc1ncc(C(F)(F)F)cc1Cl)NC(=O)c1ccc(Cl)cc1` (stereo not shown) [compound 306, N-{1-ethylcarbamoyl-2-[3-chloro-5-(trifluoromethyl)-2-pyridinyl]ethyl}-4-chlorobenzamide, reference compound], in the experiment on Botrytis cinerea, the “effectiveness on Botrytis cinerea” value was “zero effectiveness”.

Regarding `O=C(NCCc1nc(Cl)ccc1Cl)c1ccccc1I` [Compound 36], the pest or weed control at 330 ppm in the experiment with Pyrenophora teres and with Alternaria brassicae was at least 50% in each case.

Take `Cc1ccccc1C(=O)NCCc1nc(F)c(F)c(C)c1F` [Compound 49]: the pest or weed control at 330 ppm in the experiment with Pyrenophora teres and with Alternaria brassicae was at least 50% in each case.

`O=C(NCCc1nc(Cl)c(Cl)cc1Cl)c1ccccc1C(F)(F)F` [Compound 23]: the pest or weed control at 330 ppm with Botrytis cinerea was at least 50%.

As for `O=C(NCCc1nc(F)c(Cl)cc1Cl)c1ccccc1Br` [Compound 58], the pest or weed control at 330 ppm in the experiment with Pyrenophora teres and in the experiment with Alternaria brassicae was at least 50% throughout.

Turning to `Cc1ccc(CCNC(=O)c2ccccc2I)nc1` [Compound 14, N-[2-(5-methyl-2-pyridinyl)ethyl]-2-(iodo)benzamide], the pest or weed control at 330 ppm in the experiment on Alternaria brassicae was at least 50%.

`O=C(NCCc1ncc(Cl)cc1F)c1ccccc1I` [Compound 21]: the pest or weed control at 330 ppm in the experiment with Pyrenophora teres, in the experiment with Alternaria brassicae and in the experiment with Botrytis cinerea was at least 50% throughout.
